Patent US9145376B2, “Quinazolinone inhibitors of dynein” (The Rockefeller University, priority 2011, dated 2015)

Experiments:
[1] = test system: Hh pathway (Gli-responsive firefly luciferase reporter in Shh-LIGHT2 cells); assay: Shh-LIGHT2 assay for Hh pathway activity; assay type: cell-based; settings: 10% Shh-conditioned medium, 24 hours, firefly/Renilla luciferase ratio
Procedure: Shh-N-conditioned medium was prepared as described by Chen et al., Proc. Natl. Acad. Sci. U.S.A. 99, 14071 (2002). Shh-LIGHT2 cells [J. Taipale et al., Nature 406, 1005 (2000)], an NIH-3T3-based cell line containing a stably integrated Gli-responsive firefly luciferase reporter and a constitutive thymidine kinase promoter-driven Renilla luciferase expression construct (pRLTK, Promega), were cultured in DMEM containing 10% calf serum. 100 U/mL penicillin, and 0.1 mg/mL streptomycin. The cells were seeded into 96-well plates at a density of 30,000 cells/well, and the following day they were treated with individual compounds or DMSO in DMEM containing 0.5% calf serum, 10% Shh-conditioned medium, and the antibiotics described above. After being cultured for another 24 hours, the cells were lysed and their firefly and Renilla luciferase activities were determined using, a dual luciferase reporter kit (Promega) and a microplate luminometer (Veritas). Average values representing the firefly luciferase/Renilla luciferase ratio from triplicate samples were used to construct dose response profiles for each compound. Dose-response data from three separate experiments were independently curve-fitted with a variable slope, sigmoidal dose-response algorithm using Prism software, and the resulting IC50 values were used to generate an average IC50 for each compound.

[2] = test system: primary cilia of Shh-EGFP cells; assay: Quantitative assessment of ciliogenesis (Arl13b staining, cilia size); assay type: cell-based; settings: 24 hours, read-out: Primary cilia size (percent of DMSO control at a 30 μM dose)
Procedure: Shh-EGFP cells [J. Hyman et al., Proc. Natl. Acad. Sci. U.S.A., (2009)], an NIH-3T3-based cell line containing a stably integrated Gli-responsive enhanced green fluorescent protein reporter, were maintained in DMEM containing 10% calf serum, 100 U/mL penicillin, and 0.1 mg/mL streptomycin. The cells were seeded into 24-well plates containing poly-D-lysine-coated 12-mm glass coverslips at a density of 30,000 cells/well and cultured for 36 hours. The cells were transferred into DMEM containing 0.5% calf serum, the antibiotics described above, and either individual compounds at a 30 μM concentration or 0.3% DMSO. After being cultured for another 24 hours, the cells were fixed in PBS containing 4% paraformaldehyde for 10 minutes at room temperature, washed 3×5 minutes with PBS, permeabilized with PBS containing 0.3% Triton X-100 for 5 minutes, and blocked overnight at 4° C. with PBS containing 5% normal goat serum, 0.1% Triton X-100, and 0.05% sodium azide. The coverslips were then incubated for 90 minutes at room temperature with blocking buffer containing rabbit polyclonal anti-Arl 13b antibody (1:3000 dilution), washed 4×5 minutes with PBS containing 0.1% Triton X-100, and incubated for 60 minutes with blocking buffer containing Alexa Fluor 488-conjugated goat polyclonal anti-rabbit IgG antibody (1:300 dilution; Invitrogen, A-11034). Following this secondary antibody incubation, nuclei were stained by incubating the cells 2×10 minutes with PBS containing 0.1% Triton X-100 and […] 4′,6-diamidino-2-phenylindole (DAPI) and washing them 2×5 minutes with PBS. The coverslips were subsequently mounted onto slides using Prolong Gold Antifade Reagent (Invitrogen) and imaged using an HC Plan Apochromat CS 20×/0.70 NA oil immersion objective on a Leica DMI6000B compound microscope equipped with a Photometric CoolSNAP HQ CCD camera and Metamorph software (Molecular Devices). Images of Arl13b staining in DMSO-treated cells were manually examined to establish a minimum threshold value for cilia staining intensity. ImageJ software was then used to define objects consisting of two or more adjacent pixels with a signal intensity equal to or greater than this threshold value, and the total object area within an individual image was used to estimate the total pixel area of primary cilia. Corresponding images of DAPI staining were processed in parallel using CellProfiler software to establish the number of nuclei per image. The average cilia size per cell within an individual image was then determined by dividing the total ciliary pixel area by the number of nuclei. Ten individual images, each containing approximately 150 cells. were used to quantify the average cilia size for each experimental condition.
Shh-EGFP cells, an NIH-3T3-based cell line containing a stably integrated Gli-responsive enhanced green fluorescent protein reporter, were maintained in DMEM containing 10% (v/v) calf serum, 100 U/mL penicillin, and 0.1 mg/mL streptomycin. The cells were seeded into 24-well plates containing poly-D-lysine-coated 12-mm glass coverslips at a density of 30,000 cells/well and cultured for 36 hours. The cells were transferred into DMEM containing 0.5% (v/v) calf serum, the antibiotics described above, and either individual dihydroquinazolinones at a 30 μM concentration or an equivalent amount of DMSO vehicle (0.3%, v/v). After being cultured for another 24 hours, the cells were fixed in PBS containing 4% (w/v) paraformaldehyde for 10 min at room temperature, washed 3×5 min with PBS, permeabilized with PBS containing 0.3% (v/v) Triton X-100 for 5 min, and blocked overnight at 4° C. with PBS containing 5% (v/v) normal goat serum, 0.1% (v/v) Triton X-100, and 0.05% (w/v) sodium azide. […]

[3] = test system: Gli3 processing in Shh-EGFP cells; assay: Quantitative assessment of Hh ligand-dependent Gli3 processing; assay type: cell-based; settings: Shh-EGFP cells stimulated with Shh-N, 16 hours
Procedure: Shh-EGFP cells were seeded into 12-well plate at a density of 120,000 cells/well in DMEM containing 10% calf serum. 100 U/mL penicillin, and 0.1 mg/mL streptomycin. After being cultured for 24 hours, the cells were transferred into DMEM containing 0.5% calf serum, 10% Shh-conditioned medium, the antibiotics described above, and either individual compounds or DMSO. The cells were cultured for an additional 16 hours, washed with PBS, and then lysed by incubation on ice with SDS-PAGE loading buffer composed of 8% glycerol, 20 mM Tris-HCl, pH 6.8, 2% SDS, 100 mM DTT, 1 mM PMSF, 20 mM NaF, 2 mM Na3VO4, and an EDTA-free protease inhibitor cocktail (Roche). The lysed samples were heated to 100° C. for 7 minutes, loaded onto 3-8% Criterion XT Tris-Acetate polyacrylamide gels (Bio-Rad), electrophoresed in XT Tricine buffer (Bio-Rad), and transferred onto PVDF membranes. The membranes were dehydrated with methanol and probed overnight at 4° C. with goat polyclonal anti-Gli3 antibody (0.4 μg/mL: R & D Systems, AF3690) in PBS containing 4% non-fat dry milk and 0.1% Tween-20 (immunoblot blocking buffer). The blots were then washed 4×1 minutes in PBS and incubated with horseradish peroxidase-conjugated bovine polyclonal anti-goat IgG antibody (0.04 μg/mL, Jackson ImmunoResearch, 805-035-180) in immunoblot blocking buffer for 1 hour at room temperature. The membranes were next washed 4×1 minutes in PBS and visualized using SuperSignal West Dura Extended Duration substrate (Thermo Scientific) and a ChemiDoc XRS imaging system (Bio-Rad). Band intensities of Gli3FL and Gli3R where quantified using Quantity One software (Bio-Rad), and five independent experiments were used to determine the average Gli3FL/Gli3R ratio for each compound.

medulloblastoma = settings: human patient; cited from earlier work
basal cell carcinoma = settings: 33 human patients; cited from earlier work

| Structure (SMILES) | IC50 [1] | further results |
| --- | --- | --- |
| N#C/C(C(=O)c1ccc(Br)cc1)=C1\NC(=O)c2ccccc2N1 [Example 3] | 5 µM | – |
| N#C/C(C(=O)c1ccc(I)cc1)=C1\NC(=O)c2ccccc2N1 [Example 4] | 4.5 µM | – |
| Cc1ccc(C(=O)/C(C#N)=C2/NC(=O)c3ccccc3N2)cc1 [Example 5] | 15 µM | – |
| CC(C)Cc1ccc(C(=O)/C(C#N)=C2/NC(=O)c3ccccc3N2)cc1 [Example 6] | 6.5 µM | – |
| COc1ccc(C(=O)/C(C#N)=C2/NC(=O)c3ccccc3N2)cc1 [Example 8] | 30 µM | – |
| N#C/C(C(=O)c1ccc([N+](=O)[O-])cc1)=C1\NC(=O)c2ccccc2N1 [Example 9] | 25 µM | – |
| N#C/C(C(=O)c1ccccc1Cl)=C1\NC(=O)c2ccccc2N1 [Example 10, 3-(2-chlorophenyl)-3-oxo-2-(4-oxo-3,4-dihydroquinazolin-2(1H)-ylidene)propanenitrile] | 25 µM | activity at 30 µM [2]: 93% |
| N#C/C(C(=O)c1ccccc1F)=C1\NC(=O)c2ccccc2N1 [Example 11] | 30 µM | – |
| N#C/C(C(=O)c1ccccc1Br)=C1\NC(=O)c2ccccc2N1 [Example 12] | 15 µM | – |
| N#C/C(C(=O)c1ccccc1I)=C1\NC(=O)c2ccccc2N1 [Example 13] | 20 µM | – |
| Cc1ccccc1C(=O)/C(C#N)=C1/NC(=O)c2ccccc2N1 [Example 14] | 30 µM | – |
| COc1ccccc1C(=O)/C(C#N)=C1/NC(=O)c2ccccc2N1 [Example 15] | > 30 µM | – |
| N#C/C(C(=O)c1cccc(Cl)c1)=C1\NC(=O)c2ccccc2N1 [Example 17, 3-(3-chlorophenyl)-3-oxo-2-(4-oxo-3,4-dihydroquinazolin-2 (1H)-ylidene)propanenitrile] | 5.5 µM | activity at 30 µM [2]: 68% |
| N#C/C(C(=O)c1ccc(Cl)c(Cl)c1)=C1\NC(=O)c2ccccc2N1 [Example 18] | 3 µM | activity at 30 µM [2]: 16% |
| N#C/C(C(=O)c1cc(Cl)cc(Cl)c1)=C1\NC(=O)c2ccccc2N1 [Example 19] | 3 µM | activity at 30 µM [2]: 65% |
| COc1cc(C(=O)/C(C#N)=C2/NC(=O)c3ccccc3N2)cc(OC)c1OC [Example 20] | > 30 µM | – |
| N#C/C(C(=O)c1cccc2ccccc12)=C1\NC(=O)c2ccccc2N1 [Example 21] | 20 µM | – |
| Cc1cccc(C(=O)/C(C#N)=C2/NC(=O)c3ccccc3N2)c1 [Example 22] | 5 µM | – |
| O=C(/C=C1/NC(=O)c2ccccc2N1)c1ccc(Cl)cc1Cl [Example 23] | 4.4 µM | activity at 30 µM [2]: 70% |
| N#C/C(=C\c1ccc(Cl)cc1Cl)C1NC(=O)c2ccccc2N1 (stereo not drawn) [Example 24] | > 50 µM | activity at 30 µM [2]: 104% |
| N#C/C(C(=O)c1ccc(Cl)cc1Cl)=C1\NC(=O)c2c(Cl)cccc2N1 [Example 25, 2-(5-chloro-4-oxo-3,4-dihydroquinazolin-2(1H)-ylidene)-3-(2,4-dichlorophenyl)-3-oxo-propanenitrile] | 11 µM | activity at 30 µM [2]: 32%; Gli3FL/Gli3R ratio [3]: altered the Gli3FL/Gli3R ratio; Shh-N-dependent Gli3FL phosphorylation [3]: reduced |
| Cc1cccc2c1C(=O)N/C(=C(\C#N)C(=O)c1ccc(Cl)cc1Cl)N2 [Example 26] | 10 µM | – |
| N#C/C(C(=O)c1ccc(Cl)cc1Cl)=C1\NC(=O)c2cc(Cl)ccc2N1 [Example 27, 2-(6-chloro-4-oxo-3,4-dihydroquinazolin-2(1H)-ylidene)-3-(2,4-dichlorophenyl)-3-oxopropanenitrile] | 6.1 µM | activity at 30 µM [2]: 11%; Gli3FL/Gli3R ratio [3]: altered the Gli3FL/Gli3R ratio; Shh-N-dependent Gli3FL phosphorylation [3]: reduced |
| N#C/C(C(=O)c1ccc(Cl)cc1Cl)=C1\NC(=O)c2cc(I)ccc2N1 [Example 28] | 6 µM | – |
| N#C/C(C(=O)c1ccc(Cl)cc1Cl)=C1\NC(=O)c2cc(C#CCN)ccc2N1 [Example 29] | 20 µM | – |
| CC(=O)NCC#Cc1ccc2c(c1)C(=O)N/C(=C(\C#N)C(=O)c1ccc(Cl)cc1Cl)N2 [Example 30] | 30 µM | – |
| N#C/C(C(=O)c1ccc(Cl)cc1Cl)=C1\NC(=O)c2ccc(I)cc2N1 [Example 32] | 12 µM | – |
| COc1ccc2c(c1)N/C(=C(/C#N)C(=O)c1ccc(Cl)cc1Cl)NC2=O [Example 33] | 15 µM | – |
| CS(=O)(=O)c1ccc(C(=O)Nc2ccc(Cl)c(-c3ccccn3)c2)c(Cl)c1 [GDC-0449] | – | tumor response, medulloblastoma (medulloblastoma): regression of medulloblastoma; tumor response, basal cell carcinoma (basal cell carcinoma): clinically significant response |
